Assay results: the supplement of paper PMC11616607

Legend:
Assay in all cases: drug sensitivity score (DSS) from 5-point dose-response viability curve (DSS (area-under-curve based score)); higher = more sensitive (stronger growth inhibition or killing); extreme values may be limits of the assay
Conditions in all cases: exposure time: 72 h; concentration range: 5 concentrations over 10,000-fold range
[1] = system: Kuramochi
Procedure, shortened: (§1)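 Viability of ovarian cancer and normal ovarian cell lines was read by CellTiter-Glo luminescence after 3 days at 37°C and 5% CO2 in 384-well plates holding 1,500 cells per well. Drugs had been dispensed in DMSO or water with an Echo 550 at five concentrations over a 10,000-fold range. Using Breeze software, a drug sensitivity score was assigned per cell line and drug, higher scores meaning more sensitive, and zero means no response.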

[2] = system: HOSE2C
Procedure, shortened: as §1

[3] = system: COV362
Procedure, shortened: as §1

[4] = system: OV90
Procedure, shortened: as §1

[5] = system: HOSE1C
Procedure, shortened: as §1

[6] = system: JHOS2
Procedure, shortened: as §1

[7] = system: OVCAR8
Procedure, shortened: as §1

[8] = system: CAOV3
Procedure, shortened: as §1

[9] = system: COV318
Procedure, shortened: as §1

[10] = system: OVCAR4
Procedure, shortened: as §1

[11] = system: OVCAR5
Procedure, shortened: as §1

[12] = system: Ovsaho
Procedure, shortened: as §1

| SMILES | drug sensitivity score [1] | drug sensitivity score [2] | drug sensitivity score [3] | drug sensitivity score [4] | drug sensitivity score [5] | drug sensitivity score [6] | drug sensitivity score [7] | drug sensitivity score [8] | drug sensitivity score [9] | drug sensitivity score [10] | drug sensitivity score [11] | drug sensitivity score [12] |
| --- | --- | --- | --- | --- | --- | --- | --- | --- | --- | --- | --- | --- |
| C[C@@H]1CN(C(=O)c2ccc(NC(=O)c3cc(O[C@H](C)c4c(Cl)ccc(F)c4Cl)c(N)nn3)cc2)C[C@H](C)N1 [Ensartinib] | 0 | 1.9 | 0 | 0.1 | 0.5 | 0 | 0 | 1.5 | 0 | 0 | 1.8 | 0 |
| CC(C)c1c(C(=O)Nc2ccccc2)c(-c2ccccc2)c(-c2ccc(F)cc2)n1CC[C@@H](O)C[C@@H](O)CC(=O)O [Atorvastatin] | 1 | 10.8 | 0 | 2.3 | 10.1 | 0.3 | 3.6 | 0.8 | 0 | 0 | 0.4 | 5.2 |
| CCN(CC)CCCC(C)Nc1ccnc2cc(Cl)ccc12 (stereo unspecified) [Chloroquine] | – | 7.2 | 5.5 | 10 | 6.3 | – | 5.8 | 7.2 | 4.9 | 6.2 | 8.8 | 8.1 |
| Cn1cc(C2=Nc3cc(NC(=O)C(N)C4CCCCC4)cc4c3C2=CNNC4=O)cn1 (stereo unspecified) | 7.3 | 18.3 | 5.2 | 11.6 | 13.5 | 5.1 | 14.7 | 11 | 6.2 | 15.4 | 6.4 | 6.8 |
| CC(=O)N(O)CCCCCNC(=O)CCC(=O)N(O)CCCCCNC(=O)CCC(=O)N(O)CCCCCN [Deferoxamine] | 3.7 | 0 | 0.5 | 4.5 | 1.8 | 0.7 | 2.7 | 2.8 | 2.2 | 3.4 | 2.6 | 3.8 |
| O=C(/C=C/c1cccc(S(=O)(=O)Nc2ccccc2)c1)NO [Belinostat] | 10.2 | 18.1 | 7.3 | 13.5 | 23.4 | 10 | 18.2 | 13.6 | 9.1 | 8.6 | 17.2 | 11.7 |
| Nc1ncnc2c1nc(N)n2[C@@H]1O[C@H](CO)[C@@H](O)[C@H]1O [8-amino-adenosine] | 24.5 | 4.9 | 20.4 | 20.1 | 4.1 | 28.2 | 20.5 | 22.6 | 15.1 | 19 | 23.5 | 26 |
| OC[C@H]1O[C@@H](n2cnc3c2N=CNC[C@H]3O)C[C@@H]1O [Pentostatin] | 0 | 1.5 | 0 | 0 | 0 | 0 | 0 | 0 | 0 | 0 | 0 | 0 |
| O=C(O)CC[C@H]1CC[C@@](c2cc(F)ccc2F)(S(=O)(=O)c2ccc(Cl)cc2)CC1 [MK-0752] | 0 | 0 | 0 | 0.2 | 0 | 0 | 0 | 0 | 0 | 0 | 0.9 | 0 |
| Cc1nc(=O)c2cc(CN(C)c3ccc(C(=O)N[C@@H](CCC(=O)O)C(=O)O)s3)ccc2[nH]1 [Raltitrexed] | 9.1 | 20.3 | 6 | 6.1 | 21.8 | 4.2 | 18.4 | 10.7 | 3 | 6.4 | 6.3 | 5.7 |
| CNC(=O)c1cc(COc2nnc(Nc3ccc(Cl)cc3)c3ccoc23)ccn1 [Telatinib] | 0.1 | 0 | 0 | 0 | 0 | 0 | 0 | 0 | 0.2 | 0 | 0 | 0 |
| CNC(=O)c1cc(Oc2ccc(NC(=O)Nc3ccc(Cl)c(C(F)(F)F)c3)cc2)ccn1 [Sorafenib] | 0 | 0 | 0 | 0 | 0 | 0 | 0 | 0 | 0 | 0 | 0 | 0 |
| COC(=O)N[C@@H](C)CNc1nccc(-c2cn(C(C)C)nc2-c2cc(Cl)cc(NS(C)(=O)=O)c2F)n1 [Encorafenib] | 0 | 0.5 | 0 | 5.6 | 0 | 0.1 | 0 | 0.3 | 0 | 0 | 0 | 0.1 |
| CCCS(=O)(=O)Nc1ccc(F)c(C(=O)c2c[nH]c3ncc(-c4ccc(Cl)cc4)cc23)c1F [Vemurafenib] | 0.3 | 1.1 | 0 | 0 | 0.4 | 0 | 0.5 | 0 | 0 | 0 | 0.5 | 0 |
